We go through 2 compounds from patent US20090214454A1, “METHOD FOR SKIN WHITENING USING (2Z, 8Z) - MATRICARIA ACID METHYL ESTER” (INHA-INDUSTRY PARTNERSHIP INSTITUTE, priority 2008, published 2009).

In series [1] the test system is melan-A cells. The series can be described thus: Cytotoxicity test (MTT, OD540) in Melan-A cells. Particulars: for Cell survival rate (%): Melan-A cells, MTT, three days, vs non-treated group = 100. The series is classed as cell-based. The method, then: Upon completion of the culture, the medium was eliminated and 100 μl of MTT (3-(4,5-dimethythiazol-2-yl)-2,5-diphenyltetrazoliu,bromide) solution was added to each well of the plate, followed by reaction at 37° C. for 4 hours. Upon completion of the reaction, the solution was eliminated and 100 μl of DMSO was added to each well of the plate to lyse the stained cells. Then, OD540 was measured using ELISA reader. Cell survival rate was calculated by the following mathematical formula 2 (Table 2, FIGS. 4 and 5).
Cell survival rate (%)=(OD of treated group/OD of non-treated group)×100 [Mathematical Formula 2]

Series [2] relates to melan-A cells. The series can be described thus: Melanin generation inhibition by measuring OD405 in melan-A melanocytes. The series is classed as cell-based. Particulars: for Melanin generation rate (%): culture for three days, vs non-treated group = 100. The method, then: Melan-A melanocytes were provided by AmorePacific Co., Korea. Melan-A is the cell line producing melanin, which has been usually used for the examination of a whitening agent. For cell culture, RPMI1640 medium supplemented with 10% FBS, 1% penicillin/streptomycin, and 200 nM TPA was prepared and sterilized. The cells were cultured in a 37° C., 10% CO2 incubator. When the melan-A cells were grown to fill 90% of 100 mm Petri-dish, the cells were sub-cultured.
The cells were recovered by using trypsine-EDTA. 1N NaOH containing 10% DMSO (dimethylsulfoxide) was added to the recovered cells, followed by reaction at 80° C. for 1 hour to let melanin dissolved fully. Then, OD405 was measured using ELISA reader (VERSAmax, Molecular device, USA). Melanin generation was quantified by the following mathematical formula 1 (Table 1, FIGS. 4 and 5).
Melanin generation rate (%)=OD of treated group/OD of non-treated group×100 [Mathematical Formula 1]

The structures appear in SMILES notation.

As to `C/C=C\C#CC#C/C=C\C(=O)OC` [(2Z,8Z)-matricaria acid methyl ester], the “Cell survival rate (%)” value in the series on melan-A cells [1] (4.5 uM) amounted to 106.66%; in the series on melan-A cells [1] (9 uM) it was 99.44%. Moreover, in the series with melan-A cells [1] (at a low concentration), the “Cytotoxicity (result in words)” value was “no cytotoxicity was observed”. Besides, the “Melanin generation rate (%)” value stood at 36.37% in the series with melan-A cells [2] (4.5 uM) and 26.92% with melan-A cells [2] (9 uM). For the same compound, the “Melanin generation (result in words)” value in the series with melan-A cells [2] (compared with non-treated negative control (and positive control PTU for the compound)) is on record as “inhibited melanin generation at a lower concentration”.
Regarding `NC(=S)Nc1ccccc1` [Phenylthiourea, phenylthiourea, reference compound], in the series on melan-A cells [1] (50 uM), the “Cell survival rate (%)” value was determined as 100.19%. Also, the “Melanin generation rate (%)” value with melan-A cells [2] (50 uM) was 36.19%.
